assay: log P by HPLC (EEC Directive 79/831 Annex V.A8); assay type: physicochemical; details: HPLC with aqueous formic acid/acetonitrile eluents, pH 2.7; HCOOH; read-out: log P (HCOOH)
Protocol: The log P values were measured according to EEC Directive 79/831 Annex V.A8 by HPLC (high-performance liquid chromatography).
The LC-MS determination within the acidic range is effected at pH 2.7 with 0.1% aqueous formic acid and acetonitrile (contains 0.1% formic acid) as eluents; linear gradient from 10% acetonitrile to 95% acetonitrile.
The calibration is carried out using unbranched alkan-2-ones (having 3 to 16 carbon atoms) with known log P values (determination of the log P values by the retention times using linear interpolation between two successive alkanones). The lambda-maX values were determined in the maxima of the chromatographic signals using the UV spectra from 200 nm to 400 nm.

Question: With CC(C)(C)OC(=O)N1CCC(F)(c2nc(Br)cs2)CC1 [Va-1, tert-Butyl 4-(4-bromo-1,3-thiazol-2-yl)-4-fluoropiperidine-1-carboxylate] as the compound, how does the chromatographic logP read?
Answer: 3.94

Question: With CC(C)(C)OC(=O)N1CCC(O)(c2nc(Br)cs2)CC1 [IV-1, tert-Butyl 4-(4-bromo-1,3-thiazol-2-yl)-4-hydroxypiperidine-1-carboxylate] as the compound, how does the chromatographic logP read?
Answer: 2.74

same assay, conditions: HPLC with aqueous formic acid/acetonitrile eluents, pH 2.7; read-out: log P (pH2.7)

Question: Which chromatographic logP does the source give for CCOC(=O)c1csc(C2(F)CCN(C(=O)OC(C)(C)C)CC2)n1 [VIa-1, tert-Butyl 4-[4-(ethoxycarbonyl)-1,3-thiazol-2-yl]-4-fluoropiperidine-1-carboxylate] here?
Answer: 3.47

Question: For CCOC(=O)c1csc(C2(F)CCNCC2)n1 [VII-1, 4-[4-(Ethoxycarbonyl)-1,3-thiazol-2-yl]-4-fluoropiperidinium chloride], which chromatographic logP is on record?
Answer: 0.39

Question: Which chromatographic logP does the source give for CN(C(=O)c1csc(C2(F)CCN(C(=O)Cn3nc(C(F)F)cc3C(F)F)CC2)n1)C1CCCc2ccccc21 (racemic) [I-a-4, (±)-2-(1-{[3,5-bis(Difluoromethyl)-1H-pyrazol-1-yl]acetyl}-4-fluoropiperidin-4-yl)-N-methyl-N-(1,2,3,4-tetrahydronaphthalen-1-yl)-1,3-thiazole-4-carboxamide] here?
Answer: 3.56

Question: Which chromatographic logP does the source give for O=C(O)c1csc(C2(F)CCN(C(=O)Cn3nc(C(F)F)cc3C(F)F)CC2)n1 [Xa-1, 2-(1-{[3,5-bis(Difluoromethyl)-1H-pyrazol-1-yl]acetyl}-4-fluoropiperidin-4-yl)-1,3-thiazole-4-carboxylic acid] here?
Answer: 1.96

Question: With CCOC(=O)c1csc(C2(F)CCN(C(=O)Cn3nc(C(F)F)cc3C(F)F)CC2)n1 [IXa-1, Ethyl 2-(1-{[3,5-bis(difluoromethyl)-1H-pyrazol-1-yl]acetyl}-4-fluoropiperidin-4-yl)-1,3-thiazole-4-carboxylate] as the compound, how does the chromatographic logP read?
Answer: 2.82

Reference: US8815775B2 (priority 2010, dated 2014)
